The test system of assay [1] is PP2C. To be noted: cited from earlier work.
Assay [2] concerns COUP-TFII mRNA. In words: COUP-TFII mRNA in P19 cells, RNase protection assay. To be noted: 5 nM for 12 hours, with 1.0 nM Shh-N. The assay is classed as cell-based, mouse. As to the method:
The P19 mouse embryo carcinoma cell line which was earlier shown to contain increased levels of COUP-TF transcripts after retinoid treatment was utilized. Jonk, L. J. C., et al., Mechan. of Dev. (1994) 47:81-97). Conditioned media obtained from COS-1 cells transfected with mouse Shh-N cDNA expression plasmid or purified E. coli expressed recombinant Shh-N was used.
Briefly, a total of 20 μg RNA was hybridized to a 450 (FIG. 5A) or 120 (FIG. 7B) nucleotide riboprobe that corresponds to the 5′ untranslated region (UTR) of the COUP-TFII gene along with a 670 (FIG. 5A) or 102 (FIG. 7B) nucleotide riboprobe of the murine Cyclophilin A coding region. The RPA II™ kit from Ambion was used to perform the RNase protection assay. The products were subjected to RNase digestion and analyzed on a 6% urea polyacrylamide gel.
(§1) P-19 cells were treated with phosphatase inhibitors to study the endogenous levels of COUP-TFII mRNA. […] Total RVA was isolated from these cells and 20 μg of RNA was used in a RNase protection assay as described above in Example 6. A region of the murine Cyclophilin A cDNA was used to generate riboprobe and was used as an internal control. P19 cells were co-treated with (FIG. 7C, lane 2, 4, 6, and 7) or without (FIG. 7C, lane 1, 3, and 5) 1.0 nM Shh-N and 5 nM OA (lane 3 and 4), 0.5 nM CyA (FIG. 7C, lane 5 & 6) or 5 nm NoA (FIG. 7C, lane 9). Cells were harvested after 24 hours of treatment and the nuclear extract was obtained for the binding reactions. Extracts were subjected to an EMSA as described earlier.

The subject of assay [3] is GliRE. Description: GliRE-CAT reporter in P19 cells cotransfected with Shh expression plasmid. The assay is classed as cell-based, mouse. To be noted: 5 nM for 14 hours. As for the experimental part: P19 cells were cotransfected with pBKCMV-Shh expression plasmid and a GliRECAT reporter plasmid (1 μg)as described earlier. Krishnan, V., et al., Mol. Endo., 11: 1458-1466, 1997. Cells cotransfected with pBKCMY-Shh or pBKCMV plasmid (200 ng) were treated with or without 5 nM OA for 14 hours and reporter gene activity was assayed as described earlier. Gorman, C. M., et al., Mol. and Cell. Biology, 2:1044-1051, 1982. Results are expressed as mean±sd from three separate experiments.

Assay [4] deals with ShhRE. In words: EMSA of Shh-induced protein binding to radiolabeled ShhRE, P19 nuclear extracts. The format is cell-based, mouse. As to conditions: 5 nM, 1.0 nM Shh-N, 24 hours. As to the method: Methods described in Example 6 were used in addition to the following protocols. P19 cells were treated with or without Shh-N for 24 hours and nuclear extracts were obtained and used in an electrophoretic mobility shift assay (EMSA) with radiolabeled ShhRE. The following oligos were used as competitors or probes in these assays; WT ShhRE—GTTCTACATAATGCGCCG—SEQ ID NO:1; mShhRE—GTTCTACgTgATGCGCCG—SEQ ID NO:3; GliRE—[…]—. SEQ ID NO:4, Different amounts of unlabeled Gli response element (GliRE) (FIG. 5C, lane 3, 100X; lane 4, 50X; lane 5, 25X; and lane 6, 10X) or ShhRE (lane 7; 100X, lane 8; 50X and lane 9; 10X) was used as a competitor at the indicated molar excess.
In EMSA, radiolabeled probe was incubated with the nuclear extracts (10 μg) along with 4 μg poly dG-dC in a binding reaction containing 10 mM Tris pH 7.5, 50 mM NaCl, 1 mM EDTA, 1 mM DTT, 0.1 mg/ml BSA, and 5% glycerol. Later the mixture was loaded onto a 5% polyacrylamide gel and the retarded complexes were separated-in 1× TBE buffer and analyzed using autoradiography.
as §1

The subject of assay [5] is Islet-1 and neurofilament (NFL). Description: Mouse neural tube explants, whole-mount immunostaining. The assay is classed as cell-based. As to conditions: 5 nM for 24 hours. As for the experimental part: Mouse embryos at embryonic day 9-9.5 were dissected in such a way as to remove surface ectoderm and somitic mesoderm and neural tubes were isolated from the level of rhombomere 8 in the rostral region to the first segmenting somite in the caudal region. Neural tubes were cultured for 24 hours, dorsal-side down on Millicell-CM membranes and overlayed with Matrigel™ containing 10 ng/ml NT-3, with L15 air in presence or absence of 5nM OA. The explants were subjected to whole-mount immunostaining using a monoclonal antibody raised against mouse Islet-1 (39.4D5) or neurofilament (NFL) was used to analyze any changes in Islet-1 and NFL expression.

Assay [6] deals with SV40 enhancer. In words: Constitutively active SV40 enhancer luciferase reporter (specificity control). The assay is classed as cell-based. To be noted: 5 nM (data not shown).
The test system of assay [7] is PP1 and PP2A enzyme activity. In words: Protein phosphatase assay on nuclear extracts of control and Shh treated P19 cells. The format is biochemical, mouse. To be noted: 2 nM, 15 minutes at 30° C., nuclear extracts of 1 nM Shh treated P19 cells. As for the experimental part: P19 cells were treated with or without 1 nM Shh for 36 hours and nuclear extracts from these cells were obtained as described earlier. A protein phosphatase assay system™ (Life Technologies, Bethesda) was used to quantitate the phosphatase activity present in the control and induced extracts. P19 cells were treated with or without 1 nM Shh for 36 hours and nuclear extracts from these cells were obtained and incubated with 2 nM OA or 4 nM Inh-2 protein for 15 minutes at 30° C. Results are expressed as mean±sd from three separate experiments.

With `C=C1[C@@H](O)[C@@H]2O[C@]3(CC[C@H](/C=C/[C@@H](C)[C@@H]4CC(C)=C[C@@]5(O[C@H](C[C@@](C)(O)C(=O)O)CC[C@H]5O)O4)O3)CC[C@H]2O[C@@H]1[C@@H](O)C[C@H](C)[C@H]1O[C@@]2(CCCCO2)CC[C@H]1C` [OA, okadaic acid], the “effect on PP2C” value in assay [1] is “no effect”. Besides, in assay [2], the “Shh-induced COUP-TFII mRNA” value is “complete inhibition”. In addition, in assay [3], the “Shh-enhanced GliRE-CAT reporter activity” value is recorded as “sensitive”. In addition, the “Shh-induced binding to radiolabeled ShhRE” value in assay [4] was “abolished”. Moreover, the “neurofilament staining within the neural tube” value in assay [5] is on record as “no effect”. For the same molecule, the “levels of immunodetectable Is11 protein” value in assay [5] (9.5 dpc mouse neural tube explants) is “significantly decreased”. Further, the “SV40 enhancer driven luciferase reporter gene activity” value in assay [6] is given as “did not effect”. In addition, the Shh-induced phosphatase activity result in assay [7] is “completely abolished”.
